Converted amounts (≈) assume the structure as drawn. Where a name gives a salt, the structure may show the parent alone. Read-outs that look alike come from different tables or passages of the source.
Assays:
[1] = tested on: E.coli (Ec); experiment: Broth microdilution MIC against E.coli (Ec); format: cell-based; conditions: Escherichia coli
Method: (§1) A certified BSL-2 laboratory was used for testing. Compounds were evaluated using the broth microdilution minimum inhibitory concentration (MIC) and minimum bactericidal concentration (MBC) assays defined by Clinical and Laboratory Standards Institute (CLSI) in the M26-A guideline against S.aureus (Sa), E.coli (Ec), K.pneumoniae (Kp), A.baumannii (Ab), E.faecalis (Ef) and P.aeruginosa (Pa).
(§2) MICs were determined using the Clinical Laboratory and Standards Institute (CLSI) Broth Microdilution Method with slight modification. Clinical and Laboratory Standards Institute (2012). “Methods for dilution antimicrobial susceptibility tests for bacteria that grow aerobically; approved standard, 9th ed. M07-A9. Clinical and Laboratory Standards Institute, Wayne, PA.” Serial two-fold dilutions of compounds are prepared in sterile clear roundbottom 96-well plates.
(§3) To prepare microdilution trays, two-fold dilutions of antimicrobial agent are prepared in growth medium: Cation-Adjusted Mueller-Hinton Broth (CAMHB), or CAMHB supplemented with sodium bicarbonate (6.25 or 25 mM final concentration prepared from a 1.0 M stock solution) or CAMHB supplemented with heat inactivated human serum (Fisher Cat. # BP2657100) 0-50% by adding 200 µL of the highest concentration to be tested (64 µg/mL, for example) in row A, mixing and transferring 100 µL from row A to 100 µL growth medium in row B, then repeating the mixing and transferring through row H of the 96-well plate, discarding the excess 100 µL remaining. This slight modification to the CLSI protocol enables evaluation of MICs for 3 compounds per plate in triplicate, albeit with only 8 compound dilutions (CLSI protocol enables 2 compounds in triplicate with 10 dilutions). Bacterial suspensions are added to a final concentration of 5 × 10^4 CFU/well by adding 5 µL of a 1:10 dilution of a 0.5 McFarland suspension (1 × 10^8 CFU/mL) for each bacterium evaluated. Bacterial suspensions were prepared using the growth method described by CLSI. Well-isolated colonies (3-5 from an agar plate) were selected using a sterile loop and used to inoculate a tube containing 4 mL of CAMHB. The cultures are incubated at 35 ± 2° C. until it achieves or exceeds the turbidity of the 0.5 McFarland standard, determined by measuring A600nm (usually two to six hours). When growth exceeds a 0.5 McFarland standard, the turbidity is adjusted with broth to be equivalent to a 0.5 McFarland standard.

[2] = tested on: E.faecalis (Ef); experiment: Broth microdilution MIC against E.faecalis (Ef); format: cell-based; conditions: Enterococcus faecalis
Method: as §1, §2, §3

[3] = tested on: P.aeruginosa (Pa); experiment: Broth microdilution MIC against P.aeruginosa (Pa); format: cell-based; conditions: Pseudomonas aeruginosa
Method: as §1, §2, §3

[4] = tested on: E.coli S30 extract (bacterial protein synthesis); experiment: E.coli S30 extract: inhibition of bacterial protein synthesis (luciferase); format: biochemical; conditions: 37° C. for 1 hour
Method: E.coli S30 extract: Inhibition of bacterial protein synthesis was determined using the E.coli S30 Extract System for Circular DNA (Promega catalog #L-2010) and Luciferase Assay Reagent (Promega catalog #E1500) with slight modifications to a published protocol. Fyfe, C., Sutcliffe, J.A. and Grossman, T.H. (2012) “Development and characterization of a Pseudomonas aeruginosa in vitro coupled transcription-translation assay system for evaluation of translation inhibitors” J. Microbiol. Methods 90(3), 256-261.
Compounds were serial diluted in 0.5 mL microcentrifuge tubes by mixing and transferring 50 µL from the highest concentration to 50 µL of water, mixing and transferring 50 µL of this 2-fold dilution to 50 µL of water. This mixing and transferring was repeated so that there are a total of 8 tubes with serial dilutions of compound at 10× the desired screening concentration that are ultimately diluted to 1× by the addition of S30 luciferase synthesis mixture. Serial dilutions of compounds were added (2 µL) to wells in a black round bottom 96-well plate. Water (2 µL) was used as a “no inhibitor” control in 4 wells/plate. No DNA control reaction mixture (20 µL; see below) was used as a control in 4 wells/plate for background luminescence. S30 luciferase synthesis mixture (18 µL; see below) was added to wells with compounds or water mixture and incubated at 37° C. for 1 hour. Reactions were stopped by transferring to 4° C. refrigerator for 5 minutes then 25 µL of luciferase activity mix was added. Luminescence was measured using a BioTek Synergy HTX plate reader. % Inhibition was determined relative to no inhibitor controls.
S30 luciferase synthesis mixture: • 445 µL S30 extract, circular • 712 µL S30 Premix without amino acids • 4.45 µL pBESTluc™ DNA (1 µg/ µL) • 78 µL complete amino acid mixture • 267 µL water
No DNA control: • 20 µL S30 extract, circular • 32 µL S30 Premix without amino acids • 7 µL complete amino acid mixture • 21 µL water

[5] = tested on: A.baumannii (Ab); experiment: Broth microdilution MIC against A.baumannii (Ab); format: cell-based; conditions: Acinetobacter baumannii
Method: as §1, §2, §3

[6] = target: Rabbit Reticulocyte Lysate (eukaryotic protein synthesis); experiment: Rabbit Reticulocyte Lysate: inhibition of eukaryotic protein synthesis (luciferase); format: biochemical; conditions: 30° C. for 90 minutes, read-out: retic. IC50
Method: Inhibition of eukaryotic protein synthesis was determined using the Rabbit Reticulocyte Lysate System, Nuclease-Treated from Promega (catalog #L-4960) with slight modifications to the manufacturer’s protocol. Compounds were serial diluted in 0.5 mL microcentrifuge tubes by mixing and transferring 50 µL from the highest concentration to 50 µL of water, mixing and transferring 50 µL of this 2-fold dilution to 50 µL of water. This mixing and transferring was repeated so that there are a total of 8 tubes with serial dilutions of compound at 10× the desired screening concentration that are ultimately diluted to 1× by the addition of rabbit reticulocyte luciferase synthesis mixture. Serial dilutions of compounds were added (2.5 µL) to wells in a black round bottom 96-well plate. Water (2.5 µL) was used as a “no inhibitor” control in 4 wells/plate. No RNA control reaction mixture (2 µL; see below) was used as a control in 4 wells/plate for background luminescence. Rabbit reticulocyte luciferase synthesis mixture (22.5 µL; see below) was added to wells with compounds or water mixture and incubated at 30° C. for 90 minutes. Luciferase assay reagent (25 µL) was added with luminescence measured using a BioTek Synergy HTX plate reader. % Inhibition was determined relative to no inhibitor controls.
Rabbit reticulocyte luciferase synthesis mixture: • 1,000 µL rabbit reticulocyte lysate • 5.7 µL Luciferase Control RNA (1 µg/ µL) • 26 µL complete amino acid mixture • 395 µL water
No RNA Control • 70 µL rabbit reticulocyte lysate • 2 µL complete amino acid mixture • 28 µL water

[7] = tested on: S.aureus (Sa); experiment: Broth microdilution MIC against S.aureus (Sa); format: cell-based; conditions: Staphylococcus aureus
Method: as §1, §2, §3

[8] = CAMHB supplemented with sodium bicarbonate 25 mM, read-out: E.coli + bicarb 25 (MIC)
[9] = CAMHB supplemented with sodium bicarbonate 25 mM, read-out: Ef +bicarb 25 (MIC)
[10] = CAMHB supplemented with sodium bicarbonate 25 mM, read-out: Pa +bicarb 25 (MIC)
[11] = CAMHB supplemented with sodium bicarbonate 25 mM, read-out: Ab +bicarb 25 (MIC)
[12] = CAMHB supplemented with sodium bicarbonate 25 mM, read-out: Sa + bicarb 25 (MIC)
[13] = CAMHB supplemented with sodium bicarbonate 6.25 mM, read-out: E. coli + bicarb 6.25 (MIC)
[14] = CAMHB supplemented with sodium bicarbonate 6.25 mM, read-out: Ef +bicarb 6.25 (MIC)
[15] = CAMHB supplemented with sodium bicarbonate 6.25 mM, read-out: Pa +bicarb 6.25 (MIC)
[16] = CAMHB supplemented with sodium bicarbonate 6.25 mM, read-out: Ab +bicarb 6.25 (MIC)
[17] = CAMHB supplemented with sodium bicarbonate 6.25 mM, read-out: Sa + bicarb 6.25 (MIC)

SMILES	MIC [1, 8] [µg/mL]	MIC [2, 9] [µg/mL]	MIC [3, 10] [µg/mL]	IC50 [4] [nM]	MIC [5, 11] [µg/mL]	IC50 [6] [nM]	MIC [7, 12] [µg/mL]	MIC [1, 13] [µg/mL]	MIC [2, 14] [µg/mL]	MIC [3, 15] [µg/mL]	MIC [5, 16] [µg/mL]	MIC [7, 17] [µg/mL]	MIC ([1]; read-out: E. coli + bicarb 6.25 (MIC)) [µg/mL]	MIC ([2]; read-out: Ef +bicarb 6.25 (MIC)) [µg/mL]	MIC ([3]; read-out: Pa +bicarb 6.25 (MIC)) [µg/mL]	MIC ([5]; read-out: Ab +bicarb 6.25 (MIC)) [µg/mL]	MIC ([7]; read-out: Sa + bicarb 6.25 (MIC)) [µg/mL]
CN(C1CCc2cc(-n3ccc(NC(=O)N4CCN(C(=O)C(C)(C)N)CC4)nc3=O)ccc2C1)[C@H]1CC[C@H](N)C1 (stereo partly shown) [Compound 19, Hydrochloride Salt]	< 8	< 8	8 to 32	< 500	8 to 32	≥ 1000	< 8	–	–	–	–	–	–	–	–	–	–
CCN(C1CCc2cc(-n3ccc(NC(=O)N4CCN(C(=O)C(C)(C)N)CC4)nc3=O)ccc2C1)[C@H]1CC[C@H](N)C1 (stereo partly shown) [Compound 20]	< 8	< 8	8 to 32 (≈ 14.2 to 56.7 µM)	< 500	8 to 32 (≈ 14.2 to 56.7 µM)	≥ 1000	< 8	–	–	–	–	–	–	–	–	–	–
CC(C)(N)C(=O)N1CCN(C(=O)Nc2ccn(-c3ccc4c(c3)CCC(N(CC3CC3)[C@H]3CC[C@H](N)C3)C4)c(=O)n2)CC1 (stereo partly shown) [Compound 21]	< 8	< 8	8 to 32 (≈ 13.5 to 54.2 µM)	< 500	8 to 32 (≈ 13.5 to 54.2 µM)	≥ 1000	< 8	–	–	–	–	–	–	–	–	–	–
CC(C)(N)C(=O)N1CCN(C(=O)Nc2ccn(-c3ccc4c(c3)OCC(N3CCCC(N)CC3)C4)c(=O)n2)CC1 (stereo not shown) [Compound 22]	–	–	–	500 to 1000	–	≥ 1000	–	< 8	> 32	> 32	> 32	8 to 32	–	–	–	–	–
CC(C)(N)C(=O)N1CCN(C(=O)Nc2ccn(-c3ccc4c(c3)OCC(N3CC5CC5(CN)C3)C4)c(=O)n2)CC1 (stereo not shown) [Compound 23]	–	–	–	≥ 1000	–	≥ 1000	–	8 to 32	> 32	> 32	> 32	> 32	–	–	–	–	–
CC(C)(N)C(=O)N1CCN(C(=O)Nc2ccn(-c3ccc4c(c3)CCC(N[C@@H]3CC[C@@H](N)C3)C4)c(=O)n2)CC1 (stereo partly shown) [Compound 25]	–	–	–	< 500	–	≥ 1000	–	–	–	–	–	–	< 8	> 32	> 32	> 32	< 8
CC(C)(N)C(=O)N1CCN(C(=O)Nc2ccn(-c3ccc4c(c3)CCC(N[C@H]3CC[C@@H](N)C3)C4)c(=O)n2)CC1 (stereo partly shown) [Compound 26]	–	–	–	< 500	–	≥ 1000	–	< 8	> 32	> 32	> 32	< 8	–	–	–	–	–

From US20230278987A1, “Antimicrobial Compounds and Methods” (Curza Global, LLC, priority 2019, published 2023)
